According to patent US20230143604A1, “QW DOSING OF GIP RECEPTOR AGONIST PEPTIDE COMPOUNDS AND USES THEREOF” (TAKEDA PHARMACEUTICAL COMPANY LIMITED, priority 2020, published 2023):
Starred links: 1 amine or outer side, 2 acyl side, 3 side chain; linkers in the order of their positions; H or OH if unused. Non-standard residues stand in square brackets, D forms with d. Residues, ends and D or L forms follow the SMILES beside them. Groups on a side chain read outwards from the residue. *: point of attachment. C18 diacid = O=C(O)CCCCCCCCCCCCCCCCC(=O)*; C17 diacid = O=C(O)CCCCCCCCCCCCCCCC(=O)*; γGlu = O=C(O)[C@H](CCC(=O)[*:2])N[*:1]; NMeY = CN[C@@H](Cc1ccc(O)cc1)C(=O)O; AEEA = NCCOCCOCC(=O)O; Aib = CC(C)(N)C(=O)O

Assay: physchem
Summary of the method: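 Solubility at pH 7.4 determined by stepwise addition of 200 mM phosphate buffer in 100 μL increments to 3 mg peptide, mixing briefly each time, until no insoluble material remained, then measured by liquid chromatography.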

SMILES	solubility (pH 7.4, aqueous buffer)	solubility (pH 7.4)	solubility (pH 7.4, aqueous buffer, pH 7.4 Phosphate Buffer - Solubility, 200 mM Phosphate buffer pH 7.4)
CC[C@H](C)[C@H](NC(=O)[C@H](CO)NC(=O)[C@H](Cc1ccc(O)cc1)NC(=O)[C@H](CC(=O)O)NC(=O)[C@H](CO)NC(=O)[C@@H](NC(=O)[C@H](Cc1ccccc1)NC(=O)[C@@H](NC(=O)CNC(=O)[C@H](CCC(=O)O)NC(=O)C(C)(C)NC(=O)[C@H](Cc1ccc(O)cc1)NC)[C@@H](C)O)[C@@H](C)CC)C(=O)N[C@@H](C)C(=O)N[C@@H](CCCCNC(=O)COCCOCCNC(=O)COCCOCCNC(=O)CC[C@H](NC(=O)CCCCCCCCCCCCCCCCC(=O)O)C(=O)O)C(=O)N[C@@H](CC(=O)O)C(=O)N[C@@H](CCCNC(=N)N)C(=O)NC(C)(C)C(=O)N[C@@H](C)C(=O)N[C@@H](CCC(N)=O)C(=O)NC(C)(C)C(=O)N[C@@H](CC(N)=O)C(=O)N[C@@H](Cc1ccccc1)C(=O)N[C@H](C(=O)N[C@@H](CC(N)=O)C(=O)N[C@@H](Cc1c[nH]c2ccccc12)C(=O)N[C@@H](CC(C)C)C(=O)N[C@@H](CC(C)C)C(=O)N[C@@H](C)C(=O)N[C@@H](CCC(N)=O)C(=O)N[C@@H](CCCNC(=N)N)C(N)=O)C(C)C [Compound 254] (H-[NMeY][Aib]EGTFISDYSIAK([AEEA-AEEA-γGlu-C18 diacid])DR[Aib]AQ[Aib]NFVNWLLAQR-NH2)	≥ 7.2 mg/mL	–	–
CC[C@H](C)[C@H](NC(=O)[C@H](CO)NC(=O)[C@H](Cc1ccc(O)cc1)NC(=O)[C@H](CC(=O)O)NC(=O)[C@H](CO)NC(=O)[C@@H](NC(=O)[C@H](Cc1ccccc1)NC(=O)[C@@H](NC(=O)CNC(=O)[C@H](CCC(=O)O)NC(=O)C(C)(C)NC(=O)[C@H](Cc1ccc(O)cc1)NC)[C@@H](C)O)[C@@H](C)CC)C(=O)N[C@@H](C)C(=O)N[C@@H](CC(C)C)C(=O)N[C@@H](CC(=O)O)C(=O)N[C@@H](CCCNC(=N)N)C(=O)NC(C)(C)C(=O)N[C@@H](CCCCNC(=O)COCCOCCNC(=O)COCCOCCNC(=O)CC[C@H](NC(=O)CC[C@H](NC(=O)CCCCCCCCCCCCCCCCC(=O)O)C(=O)O)C(=O)O)C(=O)N[C@@H](CCC(N)=O)C(=O)NC(C)(C)C(=O)N[C@@H](CC(N)=O)C(=O)N[C@@H](Cc1ccccc1)C(=O)N[C@H](C(=O)N[C@@H](CC(N)=O)C(=O)N[C@@H](Cc1c[nH]c2ccccc12)C(=O)N[C@@H](CC(C)C)C(=O)N[C@@H](CC(C)C)C(=O)N[C@@H](C)C(=O)N[C@@H](CCC(N)=O)C(=O)N[C@@H](CCCNC(=N)N)C(N)=O)C(C)C [Compound 17] (H-[NMeY][Aib]EGTFISDYSIALDR[Aib]K([AEEA-AEEA-γGlu-γGlu-C18 diacid])Q[Aib]NFVNWLLAQR-NH2)	≥ 30 mg/mL	≥ 15 mg/mL	–
CC[C@H](C)[C@H](NC(=O)[C@H](CCCNC(=N)N)NC(=O)[C@H](CC(=O)O)NC(=O)[C@H](CCCCNC(=O)COCCOCCNC(=O)COCCOCCNC(=O)CC[C@H](NC(=O)CCCCCCCCCCCCCCCCC(=O)O)C(=O)O)NC(=O)[C@H](C)NC(=O)[C@@H](NC(=O)[C@H](CO)NC(=O)[C@H](Cc1ccc(O)cc1)NC(=O)[C@H](CC(=O)O)NC(=O)[C@H](CO)NC(=O)[C@@H](NC(=O)[C@H](Cc1ccccc1)NC(=O)[C@@H](NC(=O)CNC(=O)[C@H](CCC(=O)O)NC(=O)C(C)(C)NC(=O)[C@H](Cc1ccc(O)cc1)NC)[C@@H](C)O)[C@@H](C)CC)[C@@H](C)CC)C(=O)N[C@@H](C)C(=O)N[C@@H](CCC(N)=O)C(=O)NC(C)(C)C(=O)N[C@@H](CC(N)=O)C(=O)N[C@@H](Cc1ccccc1)C(=O)N[C@H](C(=O)N[C@@H](CC(N)=O)C(=O)N[C@@H](Cc1c[nH]c2ccccc12)C(=O)N[C@@H](CC(C)C)C(=O)N[C@@H](CC(C)C)C(=O)N[C@@H](C)C(=O)N[C@@H](CCC(N)=O)C(=O)N[C@@H](CCCNC(=N)N)C(N)=O)C(C)C [Compound 252] (H-[NMeY][Aib]EGTFISDYSIAK([AEEA-AEEA-γGlu-C18 diacid])DRIAQ[Aib]NFVNWLLAQR-NH2)	≥ 7.3 mg/mL	–	–
CC[C@H](C)[C@H](NC(=O)[C@H](CO)NC(=O)[C@H](Cc1ccc(O)cc1)NC(=O)[C@H](CC(=O)O)NC(=O)[C@H](CO)NC(=O)[C@@H](NC(=O)[C@H](Cc1ccccc1)NC(=O)[C@@H](NC(=O)CNC(=O)[C@H](CCC(=O)O)NC(=O)C(C)(C)NC(=O)[C@H](Cc1ccc(O)cc1)NC)[C@@H](C)O)[C@@H](C)CC)C(=O)N[C@@H](C)C(=O)N[C@@H](CCCCNC(=O)COCCOCCNC(=O)COCCOCCNC(=O)CC[C@H](NC(=O)CCCCCCCCCCCCCCCCC(=O)O)C(=O)O)C(=O)N[C@@H](CC(=O)O)C(=O)N[C@@H](CCCNC(=N)N)C(=O)NC(C)(C)C(=O)N[C@@H](C)C(=O)N[C@@H](CCC(N)=O)C(=O)NC(C)(C)C(=O)N[C@@H](CC(N)=O)C(=O)N[C@@H](Cc1ccccc1)C(=O)N[C@H](C(=O)N[C@@H](CC(N)=O)C(=O)N[C@@H](Cc1c[nH]c2ccccc12)C(=O)N[C@@H](CC(C)C)C(=O)N[C@@H](CC(C)C)C(=O)N[C@@H](C)C(=O)N[C@@H](CCC(N)=O)C(=O)N[C@@H](CCCCN)C(N)=O)C(C)C [Compound 6] (H-[NMeY][Aib]EGTFISDYSIAK([AEEA-AEEA-γGlu-C18 diacid])DR[Aib]AQ[Aib]NFVNWLLAQK-NH2)	≥ 15 mg/mL	–	–
CC[C@H](C)[C@H](NC(=O)[C@H](CO)NC(=O)[C@H](Cc1ccc(O)cc1)NC(=O)[C@H](CC(=O)O)NC(=O)[C@H](CO)NC(=O)[C@@H](NC(=O)[C@H](Cc1ccccc1)NC(=O)[C@@H](NC(=O)CNC(=O)[C@H](CCC(=O)O)NC(=O)C(C)(C)NC(=O)[C@H](Cc1ccc(O)cc1)NC)[C@@H](C)O)[C@@H](C)CC)C(=O)N[C@@H](C)C(=O)N[C@@H](CCCCNC(=O)CNC(=O)CNC(=O)CNC(=O)CNC(=O)CNC(=O)CCCCCCCCCCCCCCCCC(=O)O)C(=O)N[C@@H](CC(=O)O)C(=O)N[C@@H](CCCNC(=N)N)C(=O)NC(C)(C)C(=O)N[C@@H](C)C(=O)N[C@@H](CCC(N)=O)C(=O)NC(C)(C)C(=O)N[C@@H](CC(=O)O)C(=O)N[C@@H](Cc1ccccc1)C(=O)N[C@H](C(=O)N[C@@H](CC(N)=O)C(=O)N[C@@H](Cc1c[nH]c2ccccc12)C(=O)N[C@@H](CC(C)C)C(=O)N[C@@H](CC(C)C)C(=O)N[C@@H](C)C(=O)N[C@@H](CCC(N)=O)C(=O)N[C@@H](CCCNC(=N)N)C(=O)N1CCC[C@H]1C(=O)N[C@@H](CO)C(=O)N[C@@H](CO)C(=O)NCC(=O)N[C@@H](C)C(=O)N1CCC[C@H]1C(=O)N1CCC[C@H]1C(=O)N1CCC[C@H]1C(=O)N[C@@H](CO)C(N)=O)C(C)C [Compound 274]	–	–	≥ 10 mg/mL
CC[C@H](C)[C@H](NC(=O)[C@H](CO)NC(=O)[C@H](Cc1ccc(O)cc1)NC(=O)[C@H](CC(=O)O)NC(=O)[C@H](CO)NC(=O)[C@@H](NC(=O)[C@H](Cc1ccccc1)NC(=O)[C@@H](NC(=O)CNC(=O)[C@H](CCC(=O)O)NC(=O)C(C)(C)NC(=O)[C@H](Cc1ccc(O)cc1)NC)[C@@H](C)O)[C@@H](C)CC)C(=O)N[C@@H](C)C(=O)N[C@@H](CC(C)C)C(=O)N[C@@H](CC(=O)O)C(=O)N[C@@H](CCCNC(=N)N)C(=O)N[C@@H](CCCCNC(=O)CNC(=O)CNC(=O)CNC(=O)CNC(=O)CNC(=O)CCCCCCCCCCCCCCCCC(=O)O)C(=O)N[C@@H](C)C(=O)N[C@@H](CCC(N)=O)C(=O)N[C@@H](CCC(N)=O)C(=O)N[C@@H](CC(=O)O)C(=O)N[C@@H](Cc1ccccc1)C(=O)N[C@H](C(=O)N[C@@H](CC(N)=O)C(=O)N[C@@H](Cc1c[nH]c2ccccc12)C(=O)N[C@@H](CC(C)C)C(=O)N[C@@H](CC(C)C)C(=O)N[C@@H](C)C(=O)N[C@@H](CCC(N)=O)C(=O)N[C@@H](CCCNC(=N)N)C(=O)N1CCC[C@H]1C(=O)N[C@@H](CO)C(=O)N[C@@H](CO)C(=O)NCC(=O)O)C(C)C [Compound 288]	< 6 mg/mL	–	–
CC[C@H](C)[C@H](NC(=O)[C@H](CO)NC(=O)[C@H](Cc1ccc(O)cc1)NC(=O)[C@H](CC(=O)O)NC(=O)[C@H](CO)NC(=O)[C@@H](NC(=O)[C@H](Cc1ccccc1)NC(=O)[C@@H](NC(=O)CNC(=O)[C@H](CCC(=O)O)NC(=O)C(C)(C)NC(=O)[C@@H](N)Cc1ccc(O)cc1)[C@@H](C)O)[C@@H](C)CC)C(=O)N[C@@H](C)C(=O)N[C@@H](CC(C)C)C(=O)N[C@@H](CC(=O)O)C(=O)N[C@@H](CCCNC(=N)N)C(=O)NC(C)(C)C(=O)N[C@@H](C)C(=O)N[C@@H](CCC(N)=O)C(=O)NC(C)(C)C(=O)N[C@@H](CCCCNC(=O)COCCOCCNC(=O)COCCOCCNC(=O)CC[C@H](NC(=O)CC[C@H](NC(=O)CCCCCCCCCCCCCCCC(=O)O)C(=O)O)C(=O)O)C(=O)N[C@@H](Cc1ccccc1)C(=O)N[C@H](C(=O)N[C@@H](CC(N)=O)C(=O)N[C@@H](Cc1c[nH]c2ccccc12)C(=O)N[C@@H](CC(C)C)C(=O)N[C@@H](CC(C)C)C(=O)N[C@@H](C)C(=O)N[C@@H](CCC(N)=O)C(=O)N[C@@H](CCCNC(=N)N)C(=O)NCC(=O)O)C(C)C [Compound 140] (H-Y[Aib]EGTFISDYSIALDR[Aib]AQ[Aib]K([AEEA-AEEA-γGlu-γGlu-C17 diacid])FVNWLLAQRG-OH)	≥ 30 mg/mL	≥ 15 mg/mL	–
CC[C@H](C)[C@H](NC(=O)[C@H](CO)NC(=O)[C@H](Cc1ccc(O)cc1)NC(=O)[C@H](CC(=O)O)NC(=O)[C@H](CO)NC(=O)[C@@H](NC(=O)[C@H](Cc1ccccc1)NC(=O)[C@@H](NC(=O)CNC(=O)[C@H](CCC(=O)O)NC(=O)C(C)(C)NC(=O)[C@H](Cc1ccc(O)cc1)NC(C)=O)[C@@H](C)O)[C@@H](C)CC)C(=O)N[C@@H](C)C(=O)N[C@@H](CC(C)C)C(=O)N[C@@H](CC(=O)O)C(=O)N[C@@H](CCCNC(=N)N)C(=O)N[C@H](C(=O)N[C@@H](Cc1c[nH]cn1)C(=O)N[C@@H](CCC(N)=O)C(=O)N[C@@H](CCC(N)=O)C(=O)N[C@@H](CC(N)=O)C(=O)N[C@@H](Cc1ccccc1)C(=O)N[C@H](C(=O)N[C@@H](CC(N)=O)C(=O)N[C@@H](Cc1c[nH]c2ccccc12)C(=O)N[C@@H](CC(C)C)C(=O)N[C@@H](CC(C)C)C(=O)N[C@@H](C)C(=O)N[C@@H](CCC(N)=O)C(=O)N[C@@H](CCCCNC(=O)COCCOCCNC(=O)COCCOCCNC(=O)CC[C@H](NC(=O)CCCCCCCCCCCCCCCCC(=O)O)C(=O)O)C(=O)O)C(C)C)[C@@H](C)CC [Compound 244] (Ac-Y[Aib]EGTFISDYSIALDRIHQQNFVNWLLAQK([AEEA-AEEA-γGlu-C18 diacid])-OH; C-terminus assumed)	≥ 9.4 mg/mL	–	–
